Results on three compounds are retold here after patent US9737603B1, “Alcohol-based local anesthesia and associated use thereof” (priority 2014, dated 2017).

Each structure is given as a SMILES string.

For data set [1], the system named is skin tissue. Description: Topical anesthesia / analgesia after application to skin. It counts as in vivo. As to conditions: 1% (w/v) menthol, preliminary work.
Description: The alcohol-based topical anesthesia chemical composition 10 also has a skin analgesic, menthol 1% (w/v).
The subject of data set [2] is skin tissue. To be noted: topical; cited from earlier work.
Data set [3] is described as follows: Solution stability (precipitation of benzocaine). Type of data set: physicochemical. To be noted: liquid embodiment, isopropyl alcohol 70-75% (v). The source says: In a non-limiting exemplary embodiment, the alcohol-based topical anesthesia chemical composition 10 may be stored in a tightly sealed container at 25 C or a temperature range of 20 C to 40 C. Temperatures below 15 C may cause the benzocaine to precipitate.
However, beyond 16% (w/v) of benzocaine, the solution stability becomes an issue due to the precipitation of benzocaine; and menthol can be effectively utilized in the range 1% to 3% (w/v).

For `CC1CCC(C(C)C)C(O)C1` (stereo not drawn) [menthol], the counterirritant analgesic property result in data set [1] is recorded as “safe yet effective”.

As to `C[C@]12CCC(=O)C=C1CC[C@@H]1[C@@H]2[C@@H](O)C[C@@]2(C)[C@H]1CC[C@]2(O)C(=O)CO` [Hydrocortisone], the “analgesia (alternatives to menthol)” value in data set [2] was “does not provide immediate analgesia”.

Regarding `CCOC(=O)c1ccc(N)cc1` [benzocaine], the “benzocaine concentration beyond which solution stability becomes an issue due to precipitation of benzocaine” value in data set [3] is given as > 16 % (w/v).
